Assay results reported in publication PMC10892836, “Hybrid Molecules of Azithromycin with Chloramphenicol and Metronidazole: Synthesis and Study of Antibacterial Properties” (Pharmaceuticals, 2024).
Converted amounts (≈) assume the structure as drawn. “And” between values parts separate entries of the source, which are not always exact repeats. Equal values may be shown once.

Columns and labels:
70S E. coli ribosomes = assay: Competition-binding assay with BODIPY-ERY (fluorescence anisotropy); conditions: displacement of BODIPY-ERY; means, 95% confidence intervals; read-out: Apparent dissociation constant KD
Description: Affinity of compounds to the 70S E. coli ribosomes (isolated from the E. coli MRE600 strain according to a published procedure) was evaluated with a competition-binding assay using fluorescently labeled erythromycin (BODIPY-ERY) as described earlier. Briefly, BODIPY-ERY (16 nM) was mixed with ribosomes (34 nM) in 384-well plates in the buffer containing 20 mM HEPES-KOH (pH 7.5), 50 mM NH4Cl, 10 mM Mg(CH3CO2)2, 4 mM β-mercaptoethanol, and 0.05% (v/v) Tween-20. Solutions of the tested compounds were added to the obtained complexes to final concentrations from 1 to 1000 nM and incubated for 2 h at 30 °C. The values of fluorescence anisotropy were obtained using the VICTOR X5 Multilabel Plate Reader (PerkinElmer, Waltham, MA, USA). Filters of 485 and 535 nm were used for excitation and emission, respectively. To calculate the apparent dissociation constants, the assumption that the competitive equilibrium binding of two ligands occurs at a single binding site was used. For each compound, at least 2 replicates were performed. Values of apparent dissociation constants are given as means with 95% confidence intervals. The results were visualized using the GraphPad Prism software (version 8.0.1).

[1] = test system: Streptococcus pneumoniae ATCC 6305; assay: MIC, broth microdilution (CLSI); format: cell-based; conditions: ATCC6305, S. pneumoniae ATCC 6305, Table S3
Description: To evaluate the antimicrobial activity of hybrid molecules, clinical and reference strains obtained from the Laboratory of Medical Microbiology of the State Scientific Center of Antibiotics (Moscow, Russia) were used. The activity of azithromycin derivatives conjugated with chloramphenicol was tested on the following reference strains: Streptococcus pneumoniae ATCC 49619, Staphylococcus aureus ATCC 29213, and Escherichia coli ATCC 25922. Additionally, azithromycin derivatives conjugated with metronidazole were tested on the Streptococcus agalactiae 1Cp strain, Streptococcus pneumoniae ATCC 6305 strain (see Table S3, Supplementary Materials), on the anaerobic Gram-positive Clostridium sporogenes ATCC 19404 strain, and Propionibacterium acnes 55 clinical isolate.
Minimum inhibitory concentration (MIC) values for facultative anaerobic bacteria were determined using the broth microdilution method outlined in the CLSI guidelines. Initially, all compounds were dissolved in dimethyl sulfoxide (DMSO) to achieve a concentration of 10 mg/mL. Subsequently, they were diluted with the Mueller–Hinton nutrient broth (MHB) supplemented with 5% defibrinated horse blood (for Streptococcus spp.) to a concentration of 64 μg/mL. […]

[2] = test system: ribosome stalling on ermCL mRNA; assay: Toe-printing (primer extension inhibition) analysis on ermCL mRNA; format: biochemical; conditions: 50 μM (chloramphenicol 30 μM)
Description: The toe-printing (primer extension inhibition) analysis of azithromycin derivatives was carried out essentially as previously described with some minor modifications, as indicated below. The DNA template ErmCL was generated by PCR using two overlapping primers, ErmCL-fwd (5′-[…]-3′) and ErmCL-rev (5′-[…]-3′). Before the addition of the DNA template to reaction mixtures at the in vitro translation step, tubes were pre-incubated at RT for 5 min. Moreover, phenol-chloroform extraction of reverse transcription products was replaced with DNA purification using the QIAquick® PCR Purification Kit (Qiagen, Hilden, Germany) according to the manufacturer’s protocol.
Figure 4 Toe-printing (or primer extension inhibition) analysis of azithromycin derivatives on ermCL mRNA. Ribosome stalling is detected via reverse transcription in a cell-free bacterial transcription–translation coupled system. The toe-printing bands are marked with colored arrowheads, and the A-site codons (except for the start codon, P-site codon is indicated) occupied by the stalled ribosomes are indicated in the mRNA sequence with the corresponding colors. The stop codon is marked with an asterisk. All compounds but chloramphenicol (CLM) were tested at 50 μM. Chloramphenicol (CLM) was tested at 30 μM. DMSO was used as a negative control at 0.25% final concentration. Thiostrepton (THS) was used to indicate the translation start site.

E. coli ΔtolC = assay: MIC, broth microdilution, E. coli ΔtolC panel; format: cell-based; conditions: for MIC: Escherichia coli
Excerpt: The E. coli JW5503 strain with a deletion of the tolC gene (referred to here as E. coli ΔtolC) was kindly provided by Prof. Hironori Niki, National Institute of Genetics, Japan. The E. coli BW25113 strain with a partial deletion of the lptD gene, codons 330 to 352 (referred to here as E. coli lptD^mut) was kindly provided by Prof. Alexander S. Mankin, University of Illinois, Chicago, IL, USA [44]. The E. coli ΔtolC strain was transformed with the pDualrep2 (Amp^R) plasmid, whereas the E. coli lptD^mut strain was transformed with the pDualrep2 (Kan^R) plasmid (not yet published). Both E. coli strains were grown at 37 °C in Luria–Bertani (LB) medium supplemented with either 100 μg/mL ampicillin or 50 μg/mL kanamycin.
(§1) MIC values for a panel of E. coli ΔtolC strains were determined via the broth microdilution assay as described here with minor modifications. Briefly, the overnight E. coli culture was diluted to an OD600 of 0.01 in the fresh LB medium supplied with 100 μg/mL ampicillin, if required. Then, the cells were additionally incubated for 1–1.5 h at 37 °C with shaking at 200 rpm (Shaker-Incubator ES-20/80, BioSan, Riga, Latvia). Meanwhile, 100 μL of the liquid growth medium was placed in each well of a 96-well sterile plate (200 μL was placed in column 1). Solutions of tested compounds were added in the first column of the plate at 2 times the final concentration of 200 μg/mL. Then, 2-fold serial dilutions were performed. Immediately before use, bacterial inoculum was diluted (1:100) in the growth medium, and 100 μL of it was transferred in each well except for the sterility control column. The plate was incubated overnight (16–20 h) at 37 °C with constant shaking at 200 rpm (Shaker-Incubator ES-20/80, BioSan, Riga Latvia). Cell growth was assessed by scanning the OD600 with a VICTOR X5 Multilabel Plate Reader (PerkinElmer, Waltham, MA, USA).
(§2) Minimum inhibitory concentration (MIC) was defined as the lowest concentration of a chemical compound that inhibits the visible growth of the bacterial strain. At least three replicates of MIC measurements were performed.

E. coli ΔtolC pErmC = assay: MIC, broth microdilution, E. coli ΔtolC panel; format: cell-based; conditions: Escherichia coli
Description: (§3) The E. coli ΔtolC strain was also transformed with the pErmC, pErmCL-ErmC, and pERMZα plasmids. The resulting strains were grown at 37 °C in LB medium supplied with 100 μg/mL ampicillin.
as §1, §2

E. coli ΔtolC pERMZα = assay: MIC, broth microdilution, E. coli ΔtolC panel; format: cell-based; conditions: Escherichia coli
Description: as §3, §1, §2

[3] = test system: Streptococcus agalactiae 1Cp; assay: MIC, broth microdilution (CLSI); format: cell-based; conditions: S. agalactiae 1Cp
Description: (§4) Minimum inhibitory concentration (MIC) values for facultative anaerobic bacteria were determined using the broth microdilution method outlined in the CLSI guidelines. Initially, all compounds were dissolved in dimethyl sulfoxide (DMSO) to achieve a concentration of 10 mg/mL. Subsequently, they were diluted with the Mueller–Hinton nutrient broth (MHB) supplemented with 5% defibrinated horse blood (for Streptococcus spp.) to a concentration of 64 μg/mL. Following 2-fold serial dilutions of the substances, bacterial cultures in the log growth phase were added to 96-well plates at a concentration of 2.5–5 × 10^5 CFU/mL, and the plates were incubated at 37 °C for 16–20 h.
as §2

[4] = test system: Staphylococcus aureus ATCC 29213; assay: MIC, broth microdilution (CLSI); format: cell-based; conditions: ATCC29213, S. aureus ATCC 29213
Description: as §4, §2

[5] = test system: Escherichia coli ATCC 25922; assay: MIC, broth microdilution (CLSI); format: cell-based; conditions: ATCC25922, E. coli ATCC 25922
Description: as §4, §2

[6] = test system: Streptococcus pneumoniae ATCC 49619; assay: MIC, broth microdilution (CLSI); format: cell-based
Description: as §4, §2

[7] = test system: Propionibacterium acnes 55; assay: MIC, agar dilution, anaerobic bacteria (CLSI M11-A9); format: cell-based; conditions: Cutibacterium acnes; P. acnes 55, anaerobic clinical isolate
[8] = test system: Clostridium sporogenes ATCC 19404; assay: as above; format: cell-based; conditions: ATCC19404, C. sporogenes ATCC 19404, anaerobic
Description: The antimicrobial activity against anaerobic bacteria was evaluated using the agar dilution method in accordance with the CLSI document M11-A9 [58]. Twofold serial dilutions of compounds, at 10 times the desired concentration, were prepared in water and diluted (1:10) with the Brucella Agar medium containing 5% defibrinated horse blood, 5 mg/L hemin, and 1 mg/L vitamin K. The resulting plates were inoculated with approximately 10^5 CFU per spot using a replicator and incubated anaerobically at 36 °C for 48 h.
as §2

[9] = test system: cell-free bacterial translation system based on the E. coli S30 lysate; assay: In vitro translation in a cell-free bacterial system (firefly luciferase synthesis); format: biochemical; conditions: final concentration 5 μM; water control = 100%
Description: The inhibition of firefly luciferase (Fluc) synthesis by new azithromycin derivatives was assessed with the E. coli S30 Extract System for Linear Templates (Promega, Madison, WI, USA). Each reaction (5 μL total volume) was supplied with 0.1 mM mixture of all canonical amino acids, 4 U of RiboLock RNase Inhibitor (Thermo Fisher Scientific, Waltham, MA, USA), 0.1 mM of D-luciferin (Sigma-Aldrich, Burlington, MA, USA), 50 ng of firefly luciferase (Fluc) mRNA, and a chemical compound at a final concentration, as indicated in the main text, or nuclease-free water instead. Before the addition of mRNA, reaction tubes were pre-incubated at RT for 5 min and then placed back on ice. After the addition of mRNA, reaction mixtures were immediately subjected to continuous chemiluminescence measurement using the VICTOR X5 Multilabel Plate Reader (PerkinElmer, Waltham, MA, USA) at 37 °C for 30 min. Maximal rates of the firefly luciferase (Fluc) accumulation were calculated using the OriginPro 7.5 software. The values were normalized to a positive control (nuclease-free water, assigned a value of 100%). The results were visualized using the QtiPlot software (version 0.9.8.9).

[10] = test system: E. coli ΔtolC pErmCL-ErmC; assay: MIC, broth microdilution, E. coli ΔtolC panel; format: cell-based; conditions: for MIC: Escherichia coli
Description: In order to create the construct pErmCL-ErmC, the vector backbone was amplified using pZa-fwd (5′-TAAGAATTCTCTAGCCCG-3′) and pZa-rev (5′-[…]-3′) primers, and the pERMZα plasmid as a template. The ermC gene was amplified from the pERMCTP plasmid with ErmC-fwd (5′-[…]-3′) and ErmC-rev (5′-TAGGCGGGCTAGAGAATTC-3′) primers. The joining of two DNA fragments was performed using the NEBuilder® HiFi DNA Assembly Master Mix (New England Biolabs, Ipswich, MA, USA). Sequences of intermediate products and the final construct were confirmed by Sanger sequencing with appropriate primers.
as §3, §1, §2

[11] = ATCC49619, S. pneumoniae ATCC 49619, Tables 2 and 3

| Compound | Kd (70S E. coli ribosomes) | MIC [1] [µg/mL] | Ribosome stalling pattern on ermCL mRNA [2] | MIC (E. coli ΔtolC) [µg/mL] | MIC (E. coli ΔtolC pErmC) [µg/mL] | MIC (E. coli ΔtolC pERMZα) [µg/mL] | MIC ([3]; Table 3) [µg/mL] | MIC ([3]; Table S3, comparison with 2′-O-deacetyl metabolites) [µg/mL] | MIC [4] [µg/mL] | MIC [5] [µg/mL] | MIC ([6]; ATCC49619, S. pneumoniae ATCC 49619, Table S3, comparison with 2′-O-deacetyl metabolites) [µg/mL] | MIC [6, 11] [µg/mL] | MIC [7] [µg/mL] | MIC [8] [µg/mL] | Relative luciferase activity (relative maximal rate of Fluc accumulation) [9] [%] | Fold increase in the MIC value on E. coli ΔtolC pErmCL-ErmC compared to E. coli ΔtolC [10] [fold] | MIC [10] [µg/mL] | Times weaker than the parental antibiotic (azithromycin), MIC (E. coli ΔtolC; toward E. coli strains (Table 4)) |
| --- | --- | --- | --- | --- | --- | --- | --- | --- | --- | --- | --- | --- | --- | --- | --- | --- | --- | --- |
| CC[C@H]1OC(=O)[C@H](C)[C@@H](O[C@H]2C[C@@](C)(OC)[C@@H](O)[C@H](C)O2)[C@H](C)[C@@H](O[C@@H]2O[C@H](C)C[C@H](N(C)C)[C@H]2O)[C@](C)(O)C[C@@H](C)CN(C)[C@H](C)[C@@H](O)[C@]1(C)O [AZT, azithromycin] | 0.4 ± 0.1 nM | 0.03 (≈ 0.0401 µM) | induces ribosome stalling when GUA (Val) or AGC (Ser) codons enter the A-site of the ribosome | 0.8 (≈ 1.07 µM) | > 200 | 0.8 (≈ 1.07 µM) | 0.015 (≈ 0.02 µM) | 0.03 | 0.5 (≈ 0.668 µM) | 2 (≈ 2.67 µM) | 0.03 | 0.06 (≈ 0.0801 µM) | < 0.06 | 4 (≈ 5.34 µM) | 0.3 | 4 | 3.1 (≈ 4.14 µM) | – |
| CC[C@H]1OC(=O)[C@H](C)[C@@H](O[C@H]2C[C@@](C)(OC)[C@@H](OC(=O)NCCN)[C@H](C)O2)[C@H](C)[C@@H](O[C@@H]2O[C@H](C)C[C@H](N(C)C)[C@H]2OC(C)=O)[C@](C)(O)C[C@@H](C)CN(C)[C@H](C)[C@H]2OC(=O)O[C@@]21C [compound 6, 2′-O-Acetyl-4′′-O-((2-aminoethyl)carbamoyl)-11,12-cyclic carbonate of azithromycin] | 6.5 nM and 6 nM | – | premature ribosome stalling at the first Phe codon (UUU) | 3.1 (≈ 3.43 µM) | > 200 | 3.1 (≈ 3.43 µM) | – | – | 32 (≈ 35.4 µM) | > 32 | – | > 32 | – | – | 46 | – | 6.3 (≈ 6.98 µM) | 2–4 times |
| CC[C@H]1OC(=O)[C@H](C)[C@@H](O[C@H]2C[C@@](C)(OC)[C@@H](O)[C@H](C)O2)[C@H](C)[C@@H](O[C@@H]2O[C@H](C)C[C@H](N(C)C)[C@H]2O)[C@](C)(O)C[C@@H](C)C(=O)[C@H](C)[C@@H](O)[C@]1(C)O [ERY, erythromycin] | – | – | – | 3.1 (≈ 4.22 µM) | > 200 | 1.6 (≈ 2.18 µM) | – | – | – | – | – | – | – | – | 0.9 | 16 | 50 (≈ 68.1 µM) | – |
